Data set [1] has as its target CYP2E1 (Homo sapiens, UniProt P05181). The data set can be described thus: Inhibition of CYP2E1 in human liver microsomes at 20 uM using chlorzoxazone as substrate incubated for 60 mins by HPLC analysis relative to control. Type of data set: ADME. Conditions: probe chlorzoxazone. A general note: Liver microsomes are a subcellular fraction often used to study metabolism.

Data set [2] concerns the target Prostaglandin E2 receptor EP4 subtype (Mus musculus, UniProt P32240). The experiment in a line: Antagonist activity at mouse EP4 expressed in CHO cells coexpressing G16-alpha assessed as intracellular calcium flux preincubated for 15 mins followed by addition of PGE2 by calcium flux assay. Type of data set: functional, cell-based.
Data set [3] addresses T1, Prostaglandin E2 receptor EP1 subtype (Homo sapiens, UniProt P34995).
T1 sequence (P34995 whole entry): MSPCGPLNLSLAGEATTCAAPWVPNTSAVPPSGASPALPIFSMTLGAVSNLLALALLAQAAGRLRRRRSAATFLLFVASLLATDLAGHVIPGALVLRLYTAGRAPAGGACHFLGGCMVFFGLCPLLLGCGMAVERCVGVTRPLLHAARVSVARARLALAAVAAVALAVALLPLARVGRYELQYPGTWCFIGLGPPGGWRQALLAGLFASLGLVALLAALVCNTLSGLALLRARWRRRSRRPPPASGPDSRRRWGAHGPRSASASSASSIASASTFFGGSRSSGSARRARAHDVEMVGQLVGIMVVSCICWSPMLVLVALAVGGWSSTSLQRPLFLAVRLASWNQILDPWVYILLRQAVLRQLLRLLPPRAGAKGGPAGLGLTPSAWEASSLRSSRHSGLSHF
The data set can be described thus: Antagonist activity at human EP1 expressed in CHO cells coexpressing G16-alpha assessed as intracellular calcium flux preincubated for 15 mins followed by addition of PGE2 by calcium flux assay. Type of data set: functional, cell-based. In general terms: A change in cytosolic calcium serves as a functional read-out for many receptors and channels.

Data set [4] is described as follows: Metabolic stability in human liver microsomes assessed as compound remaining at 10 uM incubated for 1 hr.
A short description of data set [5]: Metabolic stability in CD1 mouse liver microsomes assessed as compound remaining at 10 uM incubated for 1 hr.
In data set [6] the target is T2, CYP1A2 (Homo sapiens, UniProt P05177).
T2 sequence (P05177 whole entry): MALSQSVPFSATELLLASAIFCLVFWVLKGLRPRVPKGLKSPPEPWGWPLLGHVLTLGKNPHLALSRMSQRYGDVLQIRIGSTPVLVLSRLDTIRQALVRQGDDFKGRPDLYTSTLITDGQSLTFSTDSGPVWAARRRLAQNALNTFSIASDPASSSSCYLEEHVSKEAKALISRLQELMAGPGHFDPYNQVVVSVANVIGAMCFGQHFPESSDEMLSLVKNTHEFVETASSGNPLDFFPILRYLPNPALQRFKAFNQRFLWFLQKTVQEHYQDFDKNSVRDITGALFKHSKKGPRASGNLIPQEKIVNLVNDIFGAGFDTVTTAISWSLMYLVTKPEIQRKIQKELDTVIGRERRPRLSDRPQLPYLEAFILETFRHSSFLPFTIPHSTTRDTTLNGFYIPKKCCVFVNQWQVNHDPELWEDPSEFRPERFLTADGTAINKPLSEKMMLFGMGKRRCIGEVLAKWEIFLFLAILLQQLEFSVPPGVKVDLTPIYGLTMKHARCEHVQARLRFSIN
The experiment in a line: Inhibition of CYP1A2 in human liver microsomes at 20 uM using phenacetin as substrate incubated for 30 mins by HPLC analysis relative to control. Type of data set: ADME. As to conditions: probe phenacetin.

Data set [7] has as its target CYP2C9 (Homo sapiens, UniProt P11712). The experiment in a line: Inhibition of CYP2C9 in human liver microsomes at 20 uM using tolbutamide as substrate incubated for 60 mins by HPLC analysis relative to control. Type of data set: ADME. As to conditions: probe tolbutamide.
Data set [8] is described as follows: Volume of distribution at steady state in BALB/c mouse at 1 mg/kg, iv measured upto 24 hrs by LC-MS/MS analysis. Conditions: in vivo.
A short description of data set [9]: Clearance in BALB/c mouse at 1 mg/kg, iv measured upto 24 hrs by LC-MS/MS analysis. As to conditions: in vivo.
Data set [10] can be described thus: Half life in BALB/c mouse at 1 mg/kg, iv measured upto 24 hrs by LC-MS/MS analysis. As to conditions: in vivo.
Data set [11] deals with T3, Prostaglandin E2 receptor EP4 subtype (Homo sapiens, UniProt P35408). The data set can be described thus: Inhibition of human EP4 transfected in human HEK293 cells assessed as reduction in PGE2-induced cAMP level incubated for 15 mins followed by PGE2 stimulation and measured every 2 mins for 30 mins by GloSensor cAMP Assay. (In general: cAMP levels reflect the balance of adenylyl cyclase and phosphodiesterase activity.)
T3 sequence (P35408 whole entry): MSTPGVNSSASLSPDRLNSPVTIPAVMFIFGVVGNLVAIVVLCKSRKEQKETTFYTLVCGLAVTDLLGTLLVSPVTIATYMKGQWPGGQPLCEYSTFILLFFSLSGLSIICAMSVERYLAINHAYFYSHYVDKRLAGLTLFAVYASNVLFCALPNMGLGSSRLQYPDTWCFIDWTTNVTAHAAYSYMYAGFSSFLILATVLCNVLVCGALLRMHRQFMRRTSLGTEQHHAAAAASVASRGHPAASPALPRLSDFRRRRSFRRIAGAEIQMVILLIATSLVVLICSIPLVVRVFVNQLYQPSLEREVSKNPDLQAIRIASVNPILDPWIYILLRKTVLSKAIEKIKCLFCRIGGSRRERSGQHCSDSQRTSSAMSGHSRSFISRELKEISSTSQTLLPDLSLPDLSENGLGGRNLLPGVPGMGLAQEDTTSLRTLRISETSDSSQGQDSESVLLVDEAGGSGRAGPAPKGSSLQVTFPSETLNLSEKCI

Data set [12] concerns the target T3, Prostaglandin E2 receptor EP4 subtype. The experiment in a line: Inhibition of human EP4 transfected in human HEK293 cells co transfected with CRE-luciferase assessed as reduction in PGE2-induced luciferase expression incubated for 24 hrs by luciferase reporter gene Assay.
Data set [13] has the same target. The data set can be described thus: Inhibition of human EP4 transfected in human HEK293 cells co transfected with SmBit-beta-arrestin. assessed as reduction in PGE2 induced-beta-arrestin recruitment by NanoBiT beta-arrestin recruitment assay.
The test system of data set [14] is CT26. The data set can be described thus: Antitumor activity against mouse CT26 cells xenografted in BALB/c mouse assessed as tumor growth inhibition at 16 mg/kg, po administerd daily and measured after two weeks. Conditions: 336 h, read-out: TGI.
Data set [15] concerns CT26. The experiment in a line: Antitumor activity against mouse CT26 cells xenografted in BALB/c mouse assessed as tumor growth inhibition at 150 mg/kg, po administerd daily and measured after two weeks. Conditions: 336 h, read-out: TGI.
Data set [16] is described as follows: Half life in BALB/c mouse at 5 mg/kg, po measured upto 24 hrs by LC-MS/MS analysis. Conditions: in vivo.
Data set [17] has as its target T3, Prostaglandin E2 receptor EP4 subtype.
Description: Antagonist activity at human EP4 expressed in CHO cells coexpressing G16-alpha assessed as intracellular calcium flux preincubated for 15 mins followed by addition of PGE2 by calcium flux assay
The target in data set [18] is T4, Prostaglandin E2 receptor EP3 subtype (Homo sapiens, UniProt P43115).
T4 sequence (P43115 whole entry): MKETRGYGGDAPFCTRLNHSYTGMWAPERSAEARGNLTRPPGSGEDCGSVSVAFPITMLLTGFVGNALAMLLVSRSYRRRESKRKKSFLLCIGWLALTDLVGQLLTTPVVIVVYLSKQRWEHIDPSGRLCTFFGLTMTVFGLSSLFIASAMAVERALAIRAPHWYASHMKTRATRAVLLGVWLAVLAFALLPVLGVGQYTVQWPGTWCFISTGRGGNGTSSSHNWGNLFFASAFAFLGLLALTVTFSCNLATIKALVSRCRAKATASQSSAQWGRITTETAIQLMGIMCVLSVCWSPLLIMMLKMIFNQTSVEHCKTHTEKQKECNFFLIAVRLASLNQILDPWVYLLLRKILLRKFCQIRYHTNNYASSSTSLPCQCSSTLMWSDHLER
Description: Antagonist activity at human EP3 expressed in CHO cells coexpressing G16-alpha assessed as intracellular calcium flux preincubated for 15 mins followed by addition of PGE2 by calcium flux assay

Data set [19] in a line: in vivo. Conditions: BALB/c, mouse, iv, 1 mg/kg.
A short description of data set [20]: in vivo. As to conditions: BALB/c, mouse, po, 5 mg/kg.
Description: Cmax in BALB/c mouse at 5 mg/kg, po measured upto 24 hrs by LC-MS/MS analysis
Data set [21] in a line: in vivo. Conditions: BALB/c, mouse, po, 5 mg/kg. This is another data set of the same source.
Description: AUC (0 to infinity) in BALB/c mouse at 5 mg/kg, po measured upto 24 hrs by LC-MS/MS analysis
Data set [22] can be described thus: in vivo. Conditions: BALB/c, mouse, po, 5 mg/kg. This is another data set of the same source.
Description: Oral bioavailability in BALB/c mouse at 5 mg/kg measured upto 24 hrs by LC-MS/MS analysis
The nature of data set [23]: in vitro. As to conditions: human, liver microsomes.

The text below walks through data of ChEMBL document CHEMBL4376865, “Discovery and Characterization of 1H-1,2,3-Triazole Derivatives as Novel Prostanoid EP4 Receptor Antagonists for Cancer Immunotherapy” (J Med Chem, 2020).

CYP2E1, sequence (P05181 whole entry): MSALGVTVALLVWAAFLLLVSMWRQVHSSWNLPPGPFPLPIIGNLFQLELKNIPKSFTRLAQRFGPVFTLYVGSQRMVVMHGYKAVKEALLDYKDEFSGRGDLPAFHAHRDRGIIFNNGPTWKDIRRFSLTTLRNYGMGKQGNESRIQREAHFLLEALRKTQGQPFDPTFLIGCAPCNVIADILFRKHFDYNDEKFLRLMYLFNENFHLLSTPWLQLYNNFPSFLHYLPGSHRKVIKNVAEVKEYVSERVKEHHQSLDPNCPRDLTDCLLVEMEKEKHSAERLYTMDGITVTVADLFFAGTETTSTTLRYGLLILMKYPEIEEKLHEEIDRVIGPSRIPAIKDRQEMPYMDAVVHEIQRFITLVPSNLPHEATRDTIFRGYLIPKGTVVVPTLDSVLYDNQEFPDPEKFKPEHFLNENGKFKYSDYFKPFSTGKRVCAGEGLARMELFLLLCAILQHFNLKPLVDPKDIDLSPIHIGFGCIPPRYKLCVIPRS
CYP2C9, sequence (P11712 whole entry): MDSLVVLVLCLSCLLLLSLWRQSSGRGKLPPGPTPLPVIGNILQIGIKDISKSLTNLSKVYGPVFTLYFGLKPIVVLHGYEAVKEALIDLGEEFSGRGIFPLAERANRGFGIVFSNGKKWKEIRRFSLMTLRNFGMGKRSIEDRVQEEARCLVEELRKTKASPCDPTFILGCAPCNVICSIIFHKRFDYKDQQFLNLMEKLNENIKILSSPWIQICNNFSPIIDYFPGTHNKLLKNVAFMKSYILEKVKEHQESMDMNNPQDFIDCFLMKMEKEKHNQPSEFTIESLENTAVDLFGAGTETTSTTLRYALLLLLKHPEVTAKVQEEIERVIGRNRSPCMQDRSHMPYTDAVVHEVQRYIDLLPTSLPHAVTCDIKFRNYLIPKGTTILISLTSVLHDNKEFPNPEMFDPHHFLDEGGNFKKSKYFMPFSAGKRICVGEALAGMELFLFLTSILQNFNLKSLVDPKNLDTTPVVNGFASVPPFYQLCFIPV
Prostaglandin E2 receptor EP4 subtype (Mus musculus, UniProt P32240), sequence (P32240 whole entry): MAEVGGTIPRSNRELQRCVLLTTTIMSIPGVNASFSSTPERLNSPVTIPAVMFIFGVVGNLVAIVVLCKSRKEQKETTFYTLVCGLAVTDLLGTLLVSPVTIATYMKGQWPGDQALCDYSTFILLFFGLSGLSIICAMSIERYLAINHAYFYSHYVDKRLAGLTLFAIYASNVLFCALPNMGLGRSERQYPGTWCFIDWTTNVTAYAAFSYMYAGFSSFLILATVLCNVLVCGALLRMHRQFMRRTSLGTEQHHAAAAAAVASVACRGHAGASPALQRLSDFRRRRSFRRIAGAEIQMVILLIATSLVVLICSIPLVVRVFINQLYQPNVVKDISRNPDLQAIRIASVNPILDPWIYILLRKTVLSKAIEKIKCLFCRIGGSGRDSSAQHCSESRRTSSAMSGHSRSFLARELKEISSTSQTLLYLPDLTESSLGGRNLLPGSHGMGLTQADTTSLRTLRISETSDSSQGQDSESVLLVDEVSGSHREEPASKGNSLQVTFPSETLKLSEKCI

The inhibition is the change of the read-out against control, counted positive when it falls. The IC50 is the concentration needed to halve the response being measured. One may read the fraction remaining as the share of the starting amount still present when the sample was taken. The Vd is the apparent volume that relates the amount in the body to the concentration in plasma or blood. A high value points to extensive tissue distribution. Usually clearance stands for a measure of how efficiently the substance is removed, as volume per time. A high value points to efficient removal. The half-life is the time in which the quantity being followed falls by half. For orientation: AUC(0-inf) means the area under the concentration-time curve extrapolated to infinity. A low value points to less exposure. For orientation: Cmax means the highest concentration seen after dosing. As a reminder, the bioavailability is dose-corrected exposure relative to a reference, in per cent. A low value points to little systemic uptake. By microsomal CLint is commonly meant the rate of metabolic loss divided by the concentration. A low value points to slow turnover. Take `C/C=C/c1nnn(Cc2ccc(C(F)(F)F)cc2)c1C(=O)N[C@@H](C)c1ccc(C(=O)O)cc1`: the inhibition at 1 h, 20 µM is 66% in data set [1] and 33% in data set [7]. In addition, the IC50 is 16.2 nM in [2]; more than 10000 nM in [3]; 18.7 nM in data set [11]; 5.2 nM in data set [12]; 0.4 nM in data set [13]; 6.1 nM in [17]. This molecule also had an IC50 in [18] of more than 10000 nM. Moreover, the fraction remaining at 1 h, 10 µM came to 100% in [4] and 82% in [5]. Moreover, in [6], the inhibition at 0.5 h, 20 µM was determined as 27%. For the same molecule, the distribution volume (Vd) at 24 h in data set [8] was determined as 4.4 L/kg. Besides, in data set [9], the clearance at 24 h is 1.7 L/h/kg. The half-life at 24 h in data set [10] was 4.1 h; in data set [16], 4.7 h. The Kb in [11] is 5.62 nM. For the same molecule, the inhibition in vivo at 16 mg/kg in data set [14] was 24.6%. In data set [15], the inhibition in vivo at 150 mg/kg worked out at 63.8%. In addition, the AUC(0-inf) at 24 h in data set [19] stood at 0.575 µg·h/mL; in data set [21], 1.24 µg·h/mL. In data set [20], this molecule yielded a Cmax at 24 h of 0.194 µg/mL. The molecule further showed a bioavailability at 24 h in data set [22] of 48%. In [23], this molecule returned a microsomal CLint at 1 h, 10 µM of less than 9.6 µL/min/mg.
